Each structure is given as a SMILES string.

For one assay, the target named is T1, M1 receptor (Rattus norvegicus, UniProt P08482).
T1 construct: from tissue; host or cells: whole animal, male SD rats (in vivo)
T1 sequence (P08482 1-460): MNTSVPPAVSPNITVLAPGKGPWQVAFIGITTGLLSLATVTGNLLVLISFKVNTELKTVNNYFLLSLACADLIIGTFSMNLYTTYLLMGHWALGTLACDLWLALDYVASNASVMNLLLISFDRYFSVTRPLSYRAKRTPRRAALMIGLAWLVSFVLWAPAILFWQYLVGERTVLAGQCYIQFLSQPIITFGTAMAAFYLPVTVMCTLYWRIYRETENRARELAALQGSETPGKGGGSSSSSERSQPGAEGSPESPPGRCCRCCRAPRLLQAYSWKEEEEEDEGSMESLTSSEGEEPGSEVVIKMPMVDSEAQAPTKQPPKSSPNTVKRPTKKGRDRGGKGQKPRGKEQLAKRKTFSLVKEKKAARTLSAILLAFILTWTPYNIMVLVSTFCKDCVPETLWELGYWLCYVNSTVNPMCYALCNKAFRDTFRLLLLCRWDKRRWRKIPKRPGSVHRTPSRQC
In words: Antagonism to M1 receptor in vivo: McNeil-A-343-induced vasopressor reaction in cervical vertebrae-separated rats. The settings on record: iv, McNeil-A-343 (0.3 mg/kg) 5 minutes after test compound. As to the method:
Male SD strain rats (weighing 300-500 g) were anesthetized with intraperitoneal administration of pentobarbital (50 mg/kg). Each rat's airway was cannulated by laryngotomy. Also by femoral incision, femoral artery and vein were isolated each and cannulated, which were used as routes for heart rate counting and chemical administration, respectively. Using a pulmotor for small animals (Type 7025, Ugo Basile Co.), artificial respiration was conducted under the conditions of ventilation rate of 6 ml/kg per breath and respiration rate of 90 breaths/min. The heart rate and blood pressure variations were measured with a heart rate counter (AT-601 G, Nippon Koden Co.) and a tonometer (AP-641G, Nippon Koden Co.), via a pressure transducer (DX-312, Nippon Koden Co.). After the blood pressure was stabilized, the cervical vertebrae was separated with an injection needle pricked from the occipital region. […] Five (5) minutes thereafter, McNeil-A-343 (0.3 mg/kg) was intravenously administered, and whereby induced hypertension variation was recorded. In this experiment one-dose evaluation per one animal was conducted. The inhibitory effect (inhibition ratio) of the test compound on the McNeil-A-343-induced vasopressor reaction was determined by the following equation: […]

Assay [1] has as its target T2, human m2 muscarinic acetylcholine receptor expressed in CHO cells (Homo sapiens, UniProt P08172).
T2 construct: purchased Receptor Biology, Inc; host or cells: CHO cells
T2 sequence (P08172 1-466): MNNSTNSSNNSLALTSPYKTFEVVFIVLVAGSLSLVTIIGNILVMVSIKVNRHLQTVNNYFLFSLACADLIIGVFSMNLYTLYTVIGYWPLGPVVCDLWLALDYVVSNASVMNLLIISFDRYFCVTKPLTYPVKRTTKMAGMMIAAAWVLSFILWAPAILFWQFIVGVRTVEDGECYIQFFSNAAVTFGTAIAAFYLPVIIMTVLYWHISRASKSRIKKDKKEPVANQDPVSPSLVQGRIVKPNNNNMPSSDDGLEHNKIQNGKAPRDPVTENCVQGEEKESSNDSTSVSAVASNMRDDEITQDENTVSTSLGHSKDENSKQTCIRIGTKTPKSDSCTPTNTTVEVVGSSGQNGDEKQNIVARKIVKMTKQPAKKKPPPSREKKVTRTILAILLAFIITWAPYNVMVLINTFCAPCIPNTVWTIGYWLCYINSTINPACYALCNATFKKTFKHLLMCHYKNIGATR
In words: Inhibition of [3H]-N-methylscopolamine binding to muscarinic m2 receptor. The settings on record: 0.2 nM [3H]-N-methylscopolamine. How it is done:
These tests were performed according to a modification of the method of Hargreaves, et al. (Br. J. Pharmacol. 107: 494-501, 1992). Namely, muscarinic acetylcholine receptors of human m1, m2, m3, m4 and m5 expressed in CHO cells (Receptor Biology, Inc.) were incubated with 0.2 nM [^3H]-N-methylscopolamine (82Ci/mmol, New England Nuclear, Inc.) and a test compound to be tested in 0.5 ml of 50 mM Tris-HCl, 10 mM MgCl2, 1 mM EDTA solution (pH 7.4) for 120 minutes at room temperature (about 20-25° C.), followed by suction filtration over a glass filter (UniFilter plate-GF/C; Packard). Then the filter was washed four times with 1 ml of ice-cold Tris-HCl buffer and dried at 50° C. for an hour. After adding a scintillator (Microscinti 0; Packard), the radioactivity of [^3H]-N-methylscopolamine binding to the filter was counted with a microplate scintillation counter (TopCount™; Packard). Non-specific receptor binding of [^3H]-N-methylscopolamine was measured by adding 1 μM N-methylscopolamine.

The target in the next assay is T3, M2 receptor (Rattus norvegicus, UniProt P10980).
T3 construct: from tissue; host or cells: whole animal, male SD rats (in vivo)
T3 sequence (P10980 1-466): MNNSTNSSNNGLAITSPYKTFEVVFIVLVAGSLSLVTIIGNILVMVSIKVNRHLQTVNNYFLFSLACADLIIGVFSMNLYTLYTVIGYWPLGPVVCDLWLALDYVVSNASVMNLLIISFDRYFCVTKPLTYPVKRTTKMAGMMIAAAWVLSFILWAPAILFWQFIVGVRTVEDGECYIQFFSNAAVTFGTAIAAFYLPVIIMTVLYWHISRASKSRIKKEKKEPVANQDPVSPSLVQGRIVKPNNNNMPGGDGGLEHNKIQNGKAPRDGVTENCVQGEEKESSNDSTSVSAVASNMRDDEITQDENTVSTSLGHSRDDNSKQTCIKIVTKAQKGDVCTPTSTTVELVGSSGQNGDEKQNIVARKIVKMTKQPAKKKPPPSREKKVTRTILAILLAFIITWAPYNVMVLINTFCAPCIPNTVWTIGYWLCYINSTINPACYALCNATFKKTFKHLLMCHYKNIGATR
Put plainly: Antagonism to M2 receptor in vivo: acetylcholine-induced bradycardia reaction in rats. The note with it: iv, acetylcholine (10 μg/kg) 5 minutes after test compound. How it is done:
Male SD strain rats (weighing 300-500 g) were anesthetized with urethane (1 g/kg) and α-chloralose (50 mg/kg) administered intraperitoneally. […] In this experiment, one-dosage evaluation was conducted per one animal of the tested rats.

By ED50 is commonly meant the midpoint of the dose-response relation. High values mean weaker potency, low ones greater potency. By Ki is commonly meant a measure of affinity in units of concentration, obtained from inhibition or displacement. On to `O=C(CCNC(=O)CNC(=O)CC(c1ccccc1)(c1ccccc1)c1ccccc1)NC[C@H]1CCCN(CC2CCCCC2)C1` [Example 12, N-{2-(3-{((3R)-1-cyclohexylmethyl-3-piperidyl)methyl}amino-3-oxopropyl)amino-2-oxoethyl}-3,3,3-triphenyloropanamide], for which the ED50 on M1 receptor is > 3 mg/kg; at M2 receptor, 1.55 mg/kg. In addition, the affinity in assay [1], expressed as Ki, was 34 nM.

On to `CC[N+]1(CC)CCC[C@H](CNC(=O)[C@H]2CCCN2C(=O)[C@@H]2C[C@@H](O)CN2C(=O)CC(c2ccccc2)(c2ccccc2)c2ccccc2)C1.[Cl-]` [Example 133, (3R)-1,1-diethyl-3-({({(2R)-1-({(2S,4R)-4-hydroxy-1-(3,3,3-triphenylpropanoyl)-2-pyrrolidinyl}carbonyl)-2-pyrrolidinyl}carbonyl)amino}methyl)piperidinium chloride], for which the figures for the ED50 at M1 receptor and at M2 receptor were > 0.3 mg/kg and 0.114 mg/kg, respectively. Also, the Ki in assay [1] is 810 nM.

Source of the values: patent US7452908B2, “Amide derivatives” (Banyu Pharmaceutical Co., Ltd., priority 1999, dated 2008).
